Assay: xn = mol fraction of the nth substance listed
Settings: 101 kPa, Liquid; for viscosity: Concentric cylinders viscometry; for mass density: Vibrating tube method

CC(=O)[O-].CCCCn1cc[n+](C)c1 [1-butyl-3-methylimidazolium acetate] + OCCNCCO
Settings | mass density, x2 = 0 [kg/m3] | mass density, x2 = 0.2 [kg/m3] | mass density, x2 = 0.4 [kg/m3] | mass density, x2 = 0.6 [kg/m3] | mass density, x2 = 0.8 [kg/m3] | viscosity, x2 = 0 [mPa·s] | viscosity, x2 = 0.2 [mPa·s] | viscosity, x2 = 0.4 [mPa·s] | viscosity, x2 = 0.6 [mPa·s] | viscosity, x2 = 0.8 [mPa·s]
293.15 K | 1056.1 | 1058.7 | 1062.8 | 1068.8 | 1079.7 | 549.9 | 425 | 319.4 | 286.8 | 400.1
303.15 K | 1049.6 | 1052.2 | 1056.3 | 1062.3 | 1073.1 | 257.4 | 208.3 | 176.1 | 150.8 | 197
313.15 K | 1043.5 | 1046.2 | 1050.3 | 1056.2 | 1067 | 135.5 | 114 | 95.9 | 86.8 | 106.3
323.15 K | 1037.4 | 1040.1 | 1044.2 | 1050.2 | 1060.7 | 78.4 | 68.4 | 59.2 | 53.8 | 62.2
333.15 K | 1031.3 | 1034.1 | 1038.1 | 1044.1 | 1054.4 | 49 | 43.9 | 38.9 | 35.4 | 38.9
343.15 K | 1025.4 | 1028.2 | 1032.2 | 1038.1 | 1048.3 | 32.5 | 29.8 | 26.9 | 24.6 | 25.8
353.15 K | – | – | – | – | – | 22.7 | 21.3 | 19.4 | 17.8 | 17.9
